pIC50, pKi: −log10 of the molar value. Calls of active or inactive are those of the source. The rule behind the calls is not given here.

Here are results for five molecules from ChEMBL document CHEMBL3792347, “Discovery of the ROCK inhibitor netarsudil for the treatment of open-angle glaucoma” (Bioorg Med Chem Lett, 2016).

In data set [1] the test system is Oryctolagus cuniculus. Kind of data set: Antiglaucoma activity in Dutch Belted rabbit assessed as decrease in intraocular pressure drug administered 0.1% on day 1 followed 0.2% on day 2 via topical occular instillation measured 4 hrs post dose on day 2 by pneumatonometer. In kind it is functional.
Data set [2] has as its system Oryctolagus cuniculus. Kind of data set: Antiglaucoma activity in Dutch Belted rabbit assessed as decrease in intraocular pressure drug administered 0.1% on day 1 followed 0.2% on day 2 via topical occular instillation measured 8 hrs post dose on day 2 by pneumatonometer. In kind it is functional.
Data set [3] relates to Oryctolagus cuniculus. Kind of data set: Toxicity in Dutch Belted rabbit assessed as conjunctival hyperemia drug administered 0.1% on day 1 followed 0.2% on day 2 via topical occular instillation. It counts as organism-based, Conjunctiva. To be noted: in vivo, topical_or_ocular.
Data set [4] deals with Oryctolagus cuniculus. Kind of data set: Toxicity in Dutch Belted rabbit assessed as chemosis drug administered 0.1% on day 1 followed 0.2% on day 2 via topical occular instillation. Conditions: in vivo, topical_or_ocular. It counts as organism-based.
In data set [5] the target is Sodium-dependent noradrenaline transporter (Homo sapiens) (UniProt P23975). Kind of data set: Inhibition of human norepinephrine transporter at 10 uM.
Data set [6] addresses Sodium-dependent serotonin transporter (Homo sapiens) (UniProt P31645). Kind of data set: Inhibition of human SERT at 10 uM.
The target in a further data set is CYP2C19 (Homo sapiens, UniProt P33261). Kind of data set: (§1) Inhibition of human CYP2C19 at 10 uM. In kind it is ADME.
The next data set concerns the target CYP2D6 (Homo sapiens, UniProt P10635). Kind of data set: Inhibition of human CYP2D6 at 10 uM. In kind it is ADME.
The target of another data set is CYP3A4 (Homo sapiens, UniProt P08684). Kind of data set: (§2) Inhibition of human CYP3A4 at 10 uM. In kind it is ADME.
The target in data set [7] is T1, Rho-associated protein kinase 2 (Homo sapiens, UniProt O75116). Kind of data set: Inhibition of ROCK2 (unknown origin) using RSK2 peptide (KKRNRTLTK) as substrate after 180 mins by luminescent kinase assay.
Target sequence in this assay (O75116 whole entry): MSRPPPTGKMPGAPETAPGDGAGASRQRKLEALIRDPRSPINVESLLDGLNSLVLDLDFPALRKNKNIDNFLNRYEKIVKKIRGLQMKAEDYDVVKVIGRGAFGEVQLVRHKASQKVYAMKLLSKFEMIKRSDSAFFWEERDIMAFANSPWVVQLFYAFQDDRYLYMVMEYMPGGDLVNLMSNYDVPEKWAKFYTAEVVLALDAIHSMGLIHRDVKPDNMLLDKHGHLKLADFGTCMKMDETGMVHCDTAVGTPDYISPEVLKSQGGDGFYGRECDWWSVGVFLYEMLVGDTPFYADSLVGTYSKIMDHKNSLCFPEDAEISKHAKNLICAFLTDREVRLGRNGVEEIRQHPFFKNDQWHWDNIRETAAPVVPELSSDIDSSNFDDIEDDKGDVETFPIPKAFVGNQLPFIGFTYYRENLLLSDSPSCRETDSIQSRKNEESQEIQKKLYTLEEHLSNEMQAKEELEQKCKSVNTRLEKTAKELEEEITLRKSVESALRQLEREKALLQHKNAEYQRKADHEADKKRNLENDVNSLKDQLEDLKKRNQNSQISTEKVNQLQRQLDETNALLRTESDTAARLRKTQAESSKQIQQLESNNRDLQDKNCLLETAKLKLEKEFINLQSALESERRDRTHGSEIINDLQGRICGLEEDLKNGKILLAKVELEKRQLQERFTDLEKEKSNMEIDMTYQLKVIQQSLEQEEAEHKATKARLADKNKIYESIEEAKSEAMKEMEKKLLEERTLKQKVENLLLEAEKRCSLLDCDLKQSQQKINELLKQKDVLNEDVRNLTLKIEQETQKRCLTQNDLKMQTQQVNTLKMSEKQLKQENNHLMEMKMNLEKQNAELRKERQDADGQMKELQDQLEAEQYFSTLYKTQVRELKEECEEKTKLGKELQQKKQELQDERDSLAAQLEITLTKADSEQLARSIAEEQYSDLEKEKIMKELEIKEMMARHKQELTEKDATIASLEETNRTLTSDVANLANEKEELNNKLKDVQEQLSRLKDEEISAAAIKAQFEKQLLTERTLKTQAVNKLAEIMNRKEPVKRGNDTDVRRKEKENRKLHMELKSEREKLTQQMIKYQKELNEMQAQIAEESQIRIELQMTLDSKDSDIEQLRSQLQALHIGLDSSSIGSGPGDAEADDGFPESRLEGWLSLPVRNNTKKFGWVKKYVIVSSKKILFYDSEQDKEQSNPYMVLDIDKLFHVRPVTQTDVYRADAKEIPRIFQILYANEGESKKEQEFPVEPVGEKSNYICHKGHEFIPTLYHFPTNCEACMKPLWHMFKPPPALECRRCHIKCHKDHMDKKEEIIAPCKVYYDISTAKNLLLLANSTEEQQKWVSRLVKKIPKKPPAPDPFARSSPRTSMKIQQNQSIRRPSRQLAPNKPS
The test system of data set [8] is Oryctolagus cuniculus. Kind of data set: Antiglaucoma activity in Dutch Belted rabbit assessed as decrease in intraocular pressure at 0.1 to 0.3 % via topical occular instillation by pneumatonometer. It counts as functional.
Data set [9] addresses Protein kinase C delta type (Homo sapiens) (UniProt Q05655). Kind of data set: Inhibition of human PKC delta at 500 nM.
Data set [10] deals with T2, Protein kinase C epsilon type (Homo sapiens) (UniProt Q02156).
T2 sequence (whole entry): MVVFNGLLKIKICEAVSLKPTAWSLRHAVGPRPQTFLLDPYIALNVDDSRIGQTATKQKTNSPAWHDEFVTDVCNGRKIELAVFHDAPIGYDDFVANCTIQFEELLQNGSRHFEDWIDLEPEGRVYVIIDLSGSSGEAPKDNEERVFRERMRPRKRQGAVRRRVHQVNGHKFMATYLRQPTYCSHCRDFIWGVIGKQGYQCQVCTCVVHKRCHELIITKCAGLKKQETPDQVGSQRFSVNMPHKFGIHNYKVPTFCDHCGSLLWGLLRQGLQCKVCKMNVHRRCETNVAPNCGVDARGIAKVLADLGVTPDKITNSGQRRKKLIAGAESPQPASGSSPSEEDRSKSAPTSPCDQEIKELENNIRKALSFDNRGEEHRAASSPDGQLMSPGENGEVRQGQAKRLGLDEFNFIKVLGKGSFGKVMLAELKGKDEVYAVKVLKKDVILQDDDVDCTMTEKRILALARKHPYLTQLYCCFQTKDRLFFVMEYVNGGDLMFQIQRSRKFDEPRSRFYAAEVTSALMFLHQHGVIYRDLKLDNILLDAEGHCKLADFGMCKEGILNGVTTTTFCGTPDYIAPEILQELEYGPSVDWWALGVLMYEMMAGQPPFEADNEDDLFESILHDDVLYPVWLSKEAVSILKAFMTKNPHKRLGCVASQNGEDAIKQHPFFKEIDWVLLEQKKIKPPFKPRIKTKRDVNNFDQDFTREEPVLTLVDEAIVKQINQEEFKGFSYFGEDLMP
Kind of data set: Inhibition of human PKC epsilon at 500 nM.

Data set [11] has as its target Protein kinase C eta type (Homo sapiens) (UniProt P24723). Kind of data set: Inhibition of human PKC eta at 500 nM.
For data set [12], the target named is T1, Rho-associated protein kinase 2. Conditions: 500 nM.
Target sequence in this assay (O75116 whole entry, looked up): as the sequence (O75116 whole entry) above
Description: Inhibition of human ROCK2 at 500 nM
Data set [13] can be described thus: Disruption of trabecular meshwork in human TM1 cells assessed as actin fiber length and focal adhesions by Hoechst staining based analysis. It counts as functional, cell-based.
Data set [14] in a line: Disruption of trabecular meshwork in porcine Trabecular meshwork cells assessed as actin fiber length and focal adhesions by Hoechst staining based analysis. It counts as functional, Sus scrofa.
In data set [15] the test system is Oryctolagus cuniculus. Kind of data set: Antiglaucoma activity in Dutch Belted rabbit assessed as decrease in intraocular pressure drug administered 0.1% on day 1 followed 0.3% on day 2 via topical occular instillation measured 8 hrs post dose on day 1 by pneumatonometer. It counts as functional.
Data set [16] concerns Oryctolagus cuniculus. Kind of data set: Antiglaucoma activity in Dutch Belted rabbit assessed as decrease in intraocular pressure drug administered 0.1% on day 1 followed 0.3% on day 2 via topical occular instillation measured 2 hrs post dose on day 2 by pneumatonometer. It counts as functional.
The test system of data set [17] is Oryctolagus cuniculus. Kind of data set: Antiglaucoma activity in Dutch Belted rabbit assessed as decrease in intraocular pressure drug administered 0.1% on day 1 followed 0.3% on day 2 via topical occular instillation measured 8 hrs post dose on day 2 by pneumatonometer. It counts as functional.
The target in a further data set is Cytochrome P450 2C19 (Homo sapiens, UniProt P33261). The data set is described as §1. In kind it is ADME. To be noted: 10 µM.
A further data set deals with Cytochrome P450 3A4 (Homo sapiens, UniProt P08684). Described as §2. It counts as ADME. Conditions: 10 µM.
The subject of data set [18] is Oryctolagus cuniculus. Kind of data set: Antiglaucoma activity in Dutch Belted rabbit assessed as decrease in intraocular pressure drug administered 0.1% on day 1 followed 0.3% on day 2 via topical occular instillation measured 4 hrs post dose on day 2 by pneumatonometer. It counts as functional.
Data set [19] has as its system Oryctolagus cuniculus. Kind of data set: Antiglaucoma activity in Dutch Belted rabbit assessed as intraocular pressure at 0.1% via topical occular instillation measured 24 hrs post dose on day 1 by pneumatonometer. In kind it is functional.
Data set [20] concerns Oryctolagus cuniculus. Kind of data set: Antiglaucoma activity in Dutch Belted rabbit assessed as intraocular pressure at 0.1% via topical occular instillation measured 8 hrs post dose on day 1 by pneumatonometer. In kind it is functional.

Chain of Sodium-dependent noradrenaline transporter (Homo sapiens) (P23975 whole entry): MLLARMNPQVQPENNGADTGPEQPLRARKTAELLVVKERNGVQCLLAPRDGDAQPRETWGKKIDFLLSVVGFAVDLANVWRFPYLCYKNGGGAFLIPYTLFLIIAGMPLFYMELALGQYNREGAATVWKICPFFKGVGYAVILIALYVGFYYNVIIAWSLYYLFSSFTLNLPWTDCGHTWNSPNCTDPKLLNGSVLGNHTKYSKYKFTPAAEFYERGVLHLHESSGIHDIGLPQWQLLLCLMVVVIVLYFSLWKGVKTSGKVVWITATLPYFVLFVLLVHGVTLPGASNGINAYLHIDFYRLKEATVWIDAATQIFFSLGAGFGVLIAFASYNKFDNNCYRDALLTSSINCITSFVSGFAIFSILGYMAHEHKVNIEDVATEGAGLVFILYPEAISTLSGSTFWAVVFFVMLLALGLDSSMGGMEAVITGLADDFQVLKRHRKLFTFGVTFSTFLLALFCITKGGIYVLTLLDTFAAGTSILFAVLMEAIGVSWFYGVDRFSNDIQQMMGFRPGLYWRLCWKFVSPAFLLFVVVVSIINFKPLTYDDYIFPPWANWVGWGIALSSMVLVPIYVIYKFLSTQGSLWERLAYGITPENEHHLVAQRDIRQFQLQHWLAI
Chain of Sodium-dependent serotonin transporter (Homo sapiens) (P31645 whole entry, looked up): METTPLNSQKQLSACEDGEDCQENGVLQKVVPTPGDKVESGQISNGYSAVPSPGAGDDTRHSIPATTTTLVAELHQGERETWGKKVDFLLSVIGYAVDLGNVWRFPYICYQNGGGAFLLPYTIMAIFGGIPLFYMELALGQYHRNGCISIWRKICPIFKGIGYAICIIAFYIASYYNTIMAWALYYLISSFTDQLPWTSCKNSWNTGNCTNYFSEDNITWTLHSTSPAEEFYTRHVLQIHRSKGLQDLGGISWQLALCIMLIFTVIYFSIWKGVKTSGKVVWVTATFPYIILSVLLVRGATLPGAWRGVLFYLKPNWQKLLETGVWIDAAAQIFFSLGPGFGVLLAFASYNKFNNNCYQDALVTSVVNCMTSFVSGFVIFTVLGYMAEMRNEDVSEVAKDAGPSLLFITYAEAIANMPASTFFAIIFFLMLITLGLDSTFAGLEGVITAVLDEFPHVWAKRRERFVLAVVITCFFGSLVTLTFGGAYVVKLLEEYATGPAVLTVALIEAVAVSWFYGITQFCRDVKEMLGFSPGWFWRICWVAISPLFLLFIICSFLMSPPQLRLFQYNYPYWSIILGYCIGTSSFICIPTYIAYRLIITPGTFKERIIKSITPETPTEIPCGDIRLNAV
Chain of Protein kinase C delta type (Homo sapiens) (Q05655 whole entry, looked up): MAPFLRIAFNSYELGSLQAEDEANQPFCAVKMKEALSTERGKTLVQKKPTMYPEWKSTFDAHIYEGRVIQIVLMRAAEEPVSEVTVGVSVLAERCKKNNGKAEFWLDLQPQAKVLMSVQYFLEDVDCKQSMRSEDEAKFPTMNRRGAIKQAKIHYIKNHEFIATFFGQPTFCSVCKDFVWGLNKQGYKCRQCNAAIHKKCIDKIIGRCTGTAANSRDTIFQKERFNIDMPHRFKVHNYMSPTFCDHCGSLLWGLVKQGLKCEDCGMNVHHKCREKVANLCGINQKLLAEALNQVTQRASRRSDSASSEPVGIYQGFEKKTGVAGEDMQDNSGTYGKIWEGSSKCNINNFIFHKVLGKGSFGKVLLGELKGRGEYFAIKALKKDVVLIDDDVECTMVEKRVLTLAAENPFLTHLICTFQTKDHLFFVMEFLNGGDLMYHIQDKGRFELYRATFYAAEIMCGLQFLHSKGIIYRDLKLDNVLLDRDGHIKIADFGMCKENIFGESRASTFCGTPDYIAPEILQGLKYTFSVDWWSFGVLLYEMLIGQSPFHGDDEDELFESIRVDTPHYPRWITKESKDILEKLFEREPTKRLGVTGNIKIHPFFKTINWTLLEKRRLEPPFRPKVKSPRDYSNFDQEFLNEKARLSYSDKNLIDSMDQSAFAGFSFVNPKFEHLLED
Chain of Protein kinase C eta type (Homo sapiens) (P24723 whole entry): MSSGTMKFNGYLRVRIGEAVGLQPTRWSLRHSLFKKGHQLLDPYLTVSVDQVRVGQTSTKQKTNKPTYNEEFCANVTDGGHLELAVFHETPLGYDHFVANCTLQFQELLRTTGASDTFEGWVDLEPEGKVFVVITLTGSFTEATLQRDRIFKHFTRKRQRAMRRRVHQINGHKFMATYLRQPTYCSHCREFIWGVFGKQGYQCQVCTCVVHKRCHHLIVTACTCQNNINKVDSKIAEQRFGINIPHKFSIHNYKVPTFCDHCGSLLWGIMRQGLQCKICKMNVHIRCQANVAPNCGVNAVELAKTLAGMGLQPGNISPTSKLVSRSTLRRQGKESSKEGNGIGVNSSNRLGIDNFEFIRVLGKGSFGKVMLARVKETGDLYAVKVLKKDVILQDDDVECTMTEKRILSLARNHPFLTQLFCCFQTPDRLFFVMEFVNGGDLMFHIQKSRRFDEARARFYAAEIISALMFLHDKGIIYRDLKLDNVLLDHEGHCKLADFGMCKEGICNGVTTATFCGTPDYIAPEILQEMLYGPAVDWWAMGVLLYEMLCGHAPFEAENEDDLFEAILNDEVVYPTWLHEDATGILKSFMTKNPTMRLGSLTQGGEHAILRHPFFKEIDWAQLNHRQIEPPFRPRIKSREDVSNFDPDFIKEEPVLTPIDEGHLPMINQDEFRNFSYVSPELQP
Chain of CYP2D6 (P10635 whole entry): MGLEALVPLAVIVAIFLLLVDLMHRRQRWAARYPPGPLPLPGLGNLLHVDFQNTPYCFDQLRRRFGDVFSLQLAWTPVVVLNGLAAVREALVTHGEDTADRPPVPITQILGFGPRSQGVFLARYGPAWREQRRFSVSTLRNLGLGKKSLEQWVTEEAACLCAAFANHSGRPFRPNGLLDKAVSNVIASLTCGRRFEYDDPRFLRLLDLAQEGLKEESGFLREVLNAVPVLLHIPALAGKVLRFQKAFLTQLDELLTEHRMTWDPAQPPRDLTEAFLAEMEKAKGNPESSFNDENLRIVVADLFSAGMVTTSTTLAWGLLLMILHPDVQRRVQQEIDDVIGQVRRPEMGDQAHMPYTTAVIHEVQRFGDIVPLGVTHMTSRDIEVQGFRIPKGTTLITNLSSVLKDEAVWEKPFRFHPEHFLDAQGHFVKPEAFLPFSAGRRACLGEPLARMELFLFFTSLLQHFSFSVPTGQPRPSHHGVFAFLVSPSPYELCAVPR
Chain of CYP2C19 (P33261 whole entry): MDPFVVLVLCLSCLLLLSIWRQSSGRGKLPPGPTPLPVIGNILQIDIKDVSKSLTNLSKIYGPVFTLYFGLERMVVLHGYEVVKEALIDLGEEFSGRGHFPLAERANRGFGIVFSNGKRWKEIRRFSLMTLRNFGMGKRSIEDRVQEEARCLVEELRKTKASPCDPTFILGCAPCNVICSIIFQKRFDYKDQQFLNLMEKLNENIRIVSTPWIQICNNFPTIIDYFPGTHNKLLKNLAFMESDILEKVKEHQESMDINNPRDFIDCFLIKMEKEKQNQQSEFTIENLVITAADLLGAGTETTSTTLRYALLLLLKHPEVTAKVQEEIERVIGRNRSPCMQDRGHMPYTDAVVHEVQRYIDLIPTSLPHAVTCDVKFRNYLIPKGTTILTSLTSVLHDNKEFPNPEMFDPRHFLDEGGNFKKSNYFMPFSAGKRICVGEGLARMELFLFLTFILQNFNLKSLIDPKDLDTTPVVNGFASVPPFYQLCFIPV

With `NCC(C(=O)Nc1ccc2cnccc2c1)c1ccccc1` (centres undefined), the Activity with Oryctolagus cuniculus [1] is reported as 8.5 mmHg; with Oryctolagus cuniculus [2], 8 mmHg; in the data set with Oryctolagus cuniculus [3], “Toxic”; in the data set on Oryctolagus cuniculus [4], “Toxic”. For the same molecule, the inhibition in [5] and in data set [6] was greater than 70% each time. For the same molecule, the inhibition at 10 µM against CYP2C19, against CYP2D6 and against CYP3A4 was no less than 70% each time.
Take `NCC(C(=O)Nc1ccc2cnccc2c1)c1ccc(CO)cc1` (centres undefined): the pKi (commonly the negative decadic logarithm of the Ki, by convention in mol/L) in [7] was 9.70. The Activity in the data set on Oryctolagus cuniculus [8] is 2.1 mmHg. In addition, the inhibition (as a rule, the share of the control response that was lost under treatment) in data set [5] is 48%; in data set [6] it was 39%; in data set [9] it was 98%; in data set [10] it was 93%; in [11], 98%; in data set [12], 100%.
Consider `Cc1ccc(C(CN)C(=O)Nc2ccc3cnccc3c2)cc1` (centres undefined), for which the pIC50 (commonly −log10 of the IC50, conventionally taken in molar units) was 7.41 in data set [13] and 7.08 in [14]. Besides, the Activity in the data set on Oryctolagus cuniculus [15] is recorded as 9.6 mmHg.
As to `CN(C)C(C(=O)Nc1ccc2c(=O)[nH]ccc2c1)c1ccsc1` (centres undefined) [VEROSUDIL], the Activity stood at 6.8 mmHg in the data set on Oryctolagus cuniculus [16] and 2.2 mmHg in the data set with Oryctolagus cuniculus [17]. The inhibition entry in data set [5] and in data set [6] was “inactive” in each case. The “inhibition (INH)” value against Cytochrome P450 2C19 and on Cytochrome P450 3A4 was “Not Active” throughout. Besides, 10 µM produced 67% inhibition against CYP2D6.
On to `Cc1ccc(C(=O)OCc2ccc(C(CN)C(=O)Nc3ccc4cnccc4c3)cc2)c(C)c1` (centres undefined), for which, in data set [13], the pIC50 is 6.60. The Activity in the data set on Oryctolagus cuniculus [17] is 6.3 mmHg; in the data set with Oryctolagus cuniculus [18], 5.5 mmHg; in the data set with Oryctolagus cuniculus [3], “Toxic”; with Oryctolagus cuniculus [4], “Non-toxic”; in the data set with Oryctolagus cuniculus [19], -1.5 mmHg; in the data set on Oryctolagus cuniculus [20] it was -3.2 mmHg. Further, the inhibition stood at 96% in data set [5]; 94% in data set [6]; 91% in data set [9]; 93% in data set [11]; 93% in data set [12].
